Source: patent US10117943B2, “Synthetic antibody mimetic compounds (SYAMS) targeting cancer, especially prostate cancer” (YALE UNIVERSITY, priority 2013, dated 2018)

Tests used:
[1] = biological target: T1, FcγRI on IIA1.6 cells and soluble recombinant human PSMA (Homo sapiens, UniProt P12314+Q04609); assay: Ternary complex formation between FcγRI expressing IIA1.6 cells and soluble PSMA; format: binding; conditions: probed with phycoerythrin anti-PSMA antibody
T1 construct: soluble recombinant human PSMA; Avi-tag; expressed in transfected cells; host or cells: IIA1.6 cells (FcγRI); PSMA added as soluble recombinant protein
Method: The inventors next evaluated SyAM-P1's ability to induce ternary complex formation, using soluble PSMA and FcγRI expressing cells (IIA1.6 cells) (FIG. 3c). The binding of PSMA to the cells was probed with a phycoerythrin anti-PSMA antibody, and was analyzed using flow cytometry.

RM1.PGLS cells [2] = assay: Phagocytosis of PSMA expressing RM1.PGLS cells by IFN-γ primed U937 cells; format: cell-based; conditions: IFN-γ primed U937 effectors
Method: Target cell passing: Three days before the experiments, a plate of target cells, RM1.PGLS cells were passed into a new flask.
Effector cell priming: Three days before the experiments, a plate of U937 cells (approximately 60% confluent) was passed into a new Petri dish (10 mL colored ADCP media total volume). IFN-γ (20 μL, 100 μg/mL in DPBS) was added, and the cells were maintained in an incubator (37° C., 24 h). The cells were transferred into a Falcon tube, and DiD (19 uL, final concentration=1.9 μM) was added. The cells were maintained in an incubator (37° C., 30 min), pelleted, aspirated, resuspended in colored ADCP media (10 mL), and split equally into two Petri dishes. To each dish were added additional colored ADCP media (5 mL) and IFN-γ (20 μL, 100 μg/mL in DPBS), and the cells were maintained in an incubator (37° C., 24 h).
Target cell preparation: To a plate of target cells (60-80% confluent RM1.PGLS cells 10 mL total media volume) was added DiO (20 μL, final concentration=2 μM). The cells were maintained in an incubator (37° C., 30 min), aspirated, and washed with colored ADCP media (3×10 mL). Colored ADCP media (10 mL) was added. The cells were maintained in an incubator (37° C., 2 h), detached and resuspended in color-free ADCP media at a concentration of 0.5 million cells per mL.
Effector cell preparation: Both dishes of primed U937 cells were transferred into a Falcon tube, pelleted, aspirated, resuspended in color-free ADCP media (10 mL), counted, and diluted with color-free ADCP media to give a final concentration of 2 million cells per mL.
Phagocytosis: All conditions were run in triplicate. For each experiment, into a sterile 2 mL Eppendorf tube were added color-free ADCP media (25 μL) containing either various concentrations of SyAM-Px or ARM-P8/Anti-DNP antibody, target cells (25 μL=12,500 cells), and effector cells (50 μL=100,000 cells), to give an effector-to-target ratio of 8:1. Tubes were gently agitated by hand. The cells were pelleted (2 min, 1100 rpm). The tubes were opened, maintained in an incubator (37° C., 1 h), resuspended by briefly agitating with a vortex, and analyzed by flow cytometry.

PSMA on RM1.PGLS cells = biological target: T2, PSMA on RM1.PGLS cells (Homo sapiens, UniProt Q04609); assay: Binding to PSMA on RM1.PGLS cells (flow cytometry); conditions: biotin-functionalized compound, fluorescent streptavidin
T2 construct: host or cells: RM1.PGLS cells
From the text: Accordingly, the inventors first synthesized the SyAM-P1 molecule, using Fmoc solid phase peptide synthesis to connect the two moieties (FIG. 2). As a consequence of that chemical synthesis the inventors tried to determine whether linking the two moieties would influence their ability to bind their respective protein targets, in a selective manner (FIG. 3A,B). The inventors thereafter evaluated the ability of the first-generation of SyAM-P molecules, identified as SyAM-P1, to bind PSMA on RM1.PGLS cells (FIG. 3A) or FcγRI on IIA1.6 cells (FIG. 3B). These experiments were conducted using SyAM-P1 molecules that were functionalized with biotin, and the bound SyAM-P1 was detected using a fluorescently labeled streptavidin, via flow-cytometry.
The binding of each SyAm derivative to PSMA was evaluated on PSMA-coated beads. 6 μm streptavidin labeled beads (Polysciences) were incubated with 400 μg/ml recombinant avi-tagged-PSMA protein for 30 minutes. Beads were washed twice with PBS, blocked with 1 mg/ml biotin for 30 minutes and then washed twice with TBS-A. 10^5 beads were incubated with a dilution series of SyAm ranging from 1 μM-100 pM. Streptavidin-Alexa467 (Invitrogen) was added to a final concentration of 3.3 μM. Samples were incubated on ice for 30 minutes, washed twice with DPBS, and evaluated by an Accuri C6 flow cytometer. […]

FcγRI = biological target: T3, FcγRI (Homo sapiens, UniProt P12314); assay: IIA1.6 FcγRI expressing cell binding assay; conditions: biotin-functionalized compound, fluorescent streptavidin
T3 construct: host or cells: IIA1.6 cells
Method: Peptide dilutions have been prepared in DMSO usually starting form 1 mM stock solution with further 10 fold dilution. Cells IIa1.6 stably transfected with FcγRIA/γ-chain and non-transfected IIa1.6 cells used as isogenic negative control, were grown to approximately 1.5-2×10^6 cells/mL density, spun down and reconstituted in RPMI 1640 medium without phenol red, supplemented with 10% FBS and Pen/Strep mixture to cell density 1×10^6 cells/mL. A 100 uL aliquot of cells was further transferred into an eppendorf tube and left to cool on ice for 5-10 minutes. Following this 1 uL of peptide dissolved in DMSO was added to the cells, bringing final concentration of DMSO to 1%. After 1 hour incubation on ice with a peptide 5 uL of Streptavidin-Alexafluor 488 (2 mg/mL) was added to the cells and left incubating on ice for 30-60 minutes. After the incubation cells were washed two times with 1 mL of cold RPMI1640 medium without phenol red, supplemented with 10% FBS and Pen/Strep and finally washed once in 1 mL TBS Buffer (150 mM NaCl and 25 mM Tris, pH 7.4). Cells were resuspended in residual TBS buffer (usually ˜100 uL) and analyzed via flow cytometry with detection in the FL1 channel.

RM1.PGLS cells [3] = assay: Superoxide burst (lucigenin) by primed U937 cells against RM1.PGLS cells; format: cell-based; conditions: IFN-γ primed U937 effectors
From the text: Since SyAM-P1 was able to induce effector-cell mediated responses against target protein coated beads, the inventors then evaluated if the molecule can elicit the effects against PSMA expressing cells. To that end, the inventors evaluated the SyAM-P1 induced immune responses by primed U937 effector cells against PSMA expressing RM1.PGLS cells. They tested the U937-mediated immune effects by evaluating both superoxide burst and phagocytosis of effector cells, analogous to the protein coated bead experiments. In this experiment, IFN-γ primed U937 cells were incubated with PSMA expressing RM1.PGLS cells, and treated with various concentrations of SyAM-P1. The resulting superoxide burst response was measured using the lucigenin assay (data not shown). Additionally, primed U937 cells (stained with DiD, an FL4 membrane dye) were incubated with target RM1.PGLS cells (stained with […], an FL1 membrane dye), in the presence of various concentrations of SyAM-P 1. The resulting phagocytosis—indicated by FL1 and FL4 double positive cells—was measured using two-color flow-cytometry. As a positive control, ARM-P8 combined with anti-DNP antibodies was utilized. […] The positive response seen with the Arm-P8 control, could potentially be attributed to the ability of antibodies to ligate both FcγRI and FcγRIIA on the immune effector cells, increasing immune signaling and phagocytic responses.

PSMA coated beads = assay: ROS production (superoxide burst, lucigenin) by primed U937 cells against PSMA coated beads; format: cell-based; conditions: PSMA labeled beads, target dependent
Method: Three days before the experiments, a plate of U937 cells (approximately 60% confluent) was passed into a new Petri dish (10 mL colored RPMI growth media total volume). IFN-γ (20 μL, 100 μg/mL in DPBS) was added, and the cells were maintained in an incubator (37° C., 24 h). The cells were pelleted after 24 hours and resuspended in 10 mL of IFN-γ (20 uL, 100 ug/mL in DPBS) and maintained in an incubator (37° C., 24 h)
For ROS production cells were resuspended in RPMI growth media (10 mL), and split equally into two Petri dishes. To each dish were added additional colored RPMI growth media (5 mL) and IFN-γ (20 μL, 100 μg/mL in DPBS), and maintained in an incubator (37° C., 24 h)
Primed U937 were suspended in color-free ADCP media at a concentration of 3×10^5 U937 cells and mixed with 10^5 PSMA coated beads and various concentrations of molecules in a 96 well plate in a volume of 90 uL. To each well was added 10 μl of 2.5 mM lucigenin (Tokyo Chemicals) solution to bring the total volume to 100 μl. The plate was centrifuged at 200 rcf for 2 minutes (PLATE SPINNER). The chemiluminescence was then measured at two minute intervals by plate reader (Biotek Synergy 2) for 60 to 90 minutes.

T3 sequence (P12314 16-374): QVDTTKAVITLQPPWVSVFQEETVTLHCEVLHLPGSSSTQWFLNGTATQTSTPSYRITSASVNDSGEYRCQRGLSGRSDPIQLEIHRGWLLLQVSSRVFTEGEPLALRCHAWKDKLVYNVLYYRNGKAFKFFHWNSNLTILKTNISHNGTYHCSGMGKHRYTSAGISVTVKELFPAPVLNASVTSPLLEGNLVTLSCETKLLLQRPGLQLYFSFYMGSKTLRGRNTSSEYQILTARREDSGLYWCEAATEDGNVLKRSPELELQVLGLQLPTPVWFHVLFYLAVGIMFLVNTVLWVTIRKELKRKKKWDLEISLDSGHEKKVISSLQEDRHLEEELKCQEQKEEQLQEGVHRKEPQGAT
T3 sequence (P30273 19-86 partner): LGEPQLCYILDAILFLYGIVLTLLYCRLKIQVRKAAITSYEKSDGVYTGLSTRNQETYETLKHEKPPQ
T1 sequence (P12314 16-374): as the sequence (P12314 16-374) above
T1 sequence (Q04609 44-750 limits assumed): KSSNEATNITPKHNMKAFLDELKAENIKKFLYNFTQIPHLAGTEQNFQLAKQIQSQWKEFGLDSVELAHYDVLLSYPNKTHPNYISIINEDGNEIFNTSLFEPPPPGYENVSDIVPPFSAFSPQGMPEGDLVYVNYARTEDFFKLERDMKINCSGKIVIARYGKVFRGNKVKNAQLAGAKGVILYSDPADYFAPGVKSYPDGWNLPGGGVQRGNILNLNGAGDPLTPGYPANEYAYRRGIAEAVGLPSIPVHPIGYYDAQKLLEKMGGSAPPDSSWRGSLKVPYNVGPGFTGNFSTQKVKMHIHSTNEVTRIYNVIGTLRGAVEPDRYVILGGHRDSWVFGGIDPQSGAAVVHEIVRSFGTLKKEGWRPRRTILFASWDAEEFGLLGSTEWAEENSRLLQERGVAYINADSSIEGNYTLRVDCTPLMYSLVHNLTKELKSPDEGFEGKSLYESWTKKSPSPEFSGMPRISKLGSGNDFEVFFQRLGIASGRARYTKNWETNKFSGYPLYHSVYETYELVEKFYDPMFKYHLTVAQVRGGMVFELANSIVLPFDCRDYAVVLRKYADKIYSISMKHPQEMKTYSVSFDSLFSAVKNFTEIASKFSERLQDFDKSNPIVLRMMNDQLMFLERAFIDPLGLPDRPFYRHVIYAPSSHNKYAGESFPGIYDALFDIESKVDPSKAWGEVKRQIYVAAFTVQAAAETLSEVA
T1 sequence (P30273 19-86 partner): as the sequence (P30273 19-86 partner) above
T2 sequence (Q04609 whole entry): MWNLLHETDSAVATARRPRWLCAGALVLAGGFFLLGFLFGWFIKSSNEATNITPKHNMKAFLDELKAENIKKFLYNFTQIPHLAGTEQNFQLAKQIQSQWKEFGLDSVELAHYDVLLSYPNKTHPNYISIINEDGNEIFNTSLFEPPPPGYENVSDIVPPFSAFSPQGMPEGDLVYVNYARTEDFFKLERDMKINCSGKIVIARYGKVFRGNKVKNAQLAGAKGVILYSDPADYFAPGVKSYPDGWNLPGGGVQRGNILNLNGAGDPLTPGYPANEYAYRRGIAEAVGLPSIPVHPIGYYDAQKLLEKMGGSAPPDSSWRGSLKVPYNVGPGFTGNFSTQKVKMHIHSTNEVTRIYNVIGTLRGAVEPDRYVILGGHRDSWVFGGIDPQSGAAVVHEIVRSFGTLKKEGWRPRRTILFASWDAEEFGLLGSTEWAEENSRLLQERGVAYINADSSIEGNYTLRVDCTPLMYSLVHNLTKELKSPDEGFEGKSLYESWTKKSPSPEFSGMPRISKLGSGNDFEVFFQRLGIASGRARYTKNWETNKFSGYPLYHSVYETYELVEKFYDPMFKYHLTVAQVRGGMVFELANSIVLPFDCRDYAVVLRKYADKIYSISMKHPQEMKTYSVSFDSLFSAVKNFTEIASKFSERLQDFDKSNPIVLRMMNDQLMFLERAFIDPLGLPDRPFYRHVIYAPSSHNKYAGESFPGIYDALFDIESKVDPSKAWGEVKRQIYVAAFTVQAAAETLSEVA

Compound: CC(=O)N[C@H](C(=O)N[C@@H](CC(N)=O)C(=O)N[C@@H](CO)C(=O)N[C@H]1CSSC[C@@H](C(=O)NCC(=O)N[C@@H](CC(=O)O)C(=O)N[C@@H](CC(=O)O)C(=O)N[C@@H](CCCCNC(=O)CCCC[C@@H]2SC[C@@H]3NC(=O)N[C@@H]32)C(=O)NCCCCCC(=O)NCCCCCC(=O)NCCCCCC(=O)NCCCCCC(=O)NCCCCCC(=O)N[C@@H](CCCCNC(=O)CCCCc2cn(CCCC[C@H](NC(=O)N[C@@H](CCC(=O)O)C(=O)O)C(=O)O)nn2)C(=O)NCC(N)=O)NC(=O)CNC(=O)[C@H](CC(C)C)NC(=O)[C@H](CC(C)C)NC(=O)[C@H](CC(N)=O)NC(=O)[C@@H]2CCCN2C(=O)[C@H](CC(C)C)NC(=O)[C@H](CC(C)C)NC(=O)[C@H](CC(C)C)NC1=O)C(C)C [SyAM-P1]
- ternary complex formation [1]: mediated through SyAM-P1
- phagocytosis of RM1.PGLS cells (in words) (RM1.PGLS cells [2]): unable to induce any immune responses
- binding to PSMA on RM1.PGLS cells (PSMA on RM1.PGLS cells): capability to bind to its respective targets
- binding to FcγRI on IIA1.6 cells (FcγRI): capability to bind to its respective targets
- superoxide burst against RM1.PGLS cells (in words) (RM1.PGLS cells [3]): unable to induce any immune responses
- concentration at which superoxide burst is induced (PSMA coated beads): 100 nM
